Measured values as given in PubChem BioAssay (NCI).
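How tested: cells in 96-well plates exposed to compound for 48 hours at five concentrations. GI50 marks 50% less growth. At the TGI there is no net growth.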

Assays:
Assay in all cases: inhibition of tumour cell growth, NCI panel, 48 h
SF-295 CNS = tested on: SF-295 CNS
HL-60(TB) leukemia = tested on: HL-60(TB) leukemia
TK-10 renal = tested on: TK-10 renal
COLO 205 colon = tested on: COLO 205 colon
UO-31 renal = tested on: UO-31 renal
SNB-75 CNS = tested on: SNB-75 CNS
HT29 colon = tested on: HT29 colon
SN12C renal = tested on: SN12C renal
MALME-3M melanoma = tested on: MALME-3M melanoma
HCC-2998 colon = tested on: HCC-2998 colon
PC-3 prostate = tested on: PC-3 prostate
SF-268 CNS = tested on: SF-268 CNS
SK-MEL-2 melanoma = tested on: SK-MEL-2 melanoma
MCF7 breast = tested on: MCF7 breast
UACC-257 melanoma = tested on: UACC-257 melanoma
HOP-92 NSCLC = tested on: HOP-92 NSCLC
NCI/ADR-RES ovarian = tested on: NCI/ADR-RES ovarian
MDA-MB-435 = tested on: MDA-MB-435
A549 NSCLC = tested on: A549 NSCLC
SW-620 colon = tested on: SW-620 colon
NCI-H460 lung = tested on: NCI-H460 lung
K-562 leukemia = tested on: K-562 leukemia
LOX IMVI melanoma = tested on: LOX IMVI melanoma
RXF 393 renal = tested on: RXF 393 renal
SK-MEL-28 melanoma = tested on: SK-MEL-28 melanoma
EKVX NSCLC = tested on: EKVX NSCLC
A498 renal = tested on: A498 renal
NCI-H522 lung = tested on: NCI-H522 lung
NCI-H226 lung = tested on: NCI-H226 lung
CCRF-CEM leukemia = tested on: CCRF-CEM leukemia

`O=C(/C=C/Nc1ccc(Cl)cc1)c1ccc2c(c1)Nc1ccccc1S2` showed a GI50 (SF-295 CNS) of 4.19 µM, a TGI (SF-295 CNS) of 17.1 µM and a GI50 (HL-60(TB) leukemia) of 69.8 µM. The TGI (HL-60(TB) leukemia) was > 100 µM, the GI50 (TK-10 renal) was 13.3 µM and the TGI (TK-10 renal) was 28.8 µM. For the same compound, the GI50 (COLO 205 colon) was 11.9 µM, the TGI (COLO 205 colon) was 28.6 µM and the GI50 (UO-31 renal) was 16.9 µM. The TGI (UO-31 renal) was 34.3 µM, the GI50 (SNB-75 CNS) was 1.96 µM and the TGI (SNB-75 CNS) was 6.85 µM. It also gave a GI50 (HT29 colon) of 13.1 µM, a TGI (HT29 colon) of 32 µM and a GI50 (SN12C renal) of 13.7 µM. It also gave a TGI (SN12C renal) of 66.5 µM, a GI50 (MALME-3M melanoma) of 11.4 µM and a TGI (MALME-3M melanoma) of 24.7 µM. It also gave a GI50 (HCC-2998 colon) of 13.2 µM, a TGI (HCC-2998 colon) of 36.8 µM and a GI50 (PC-3 prostate) of 7.55 µM. It also gave a TGI (PC-3 prostate) of 25.1 µM, a GI50 (SF-268 CNS) of 6.05 µM and a TGI (SF-268 CNS) of 25.1 µM. The GI50 (SK-MEL-2 melanoma) was 13.6 µM, the TGI (SK-MEL-2 melanoma) was 32.8 µM and the GI50 (MCF7 breast) was 6.64 µM. It also gave a TGI (MCF7 breast) of 23.9 µM, a GI50 (UACC-257 melanoma) of 18.7 µM and a TGI (UACC-257 melanoma) of 59.9 µM. For the same compound, the GI50 (HOP-92 NSCLC) was 12.6 µM, the TGI (HOP-92 NSCLC) was 29.9 µM and the GI50 (NCI/ADR-RES ovarian) was 5.71 µM. For the same compound, the TGI (NCI/ADR-RES ovarian) was 20.1 µM, the GI50 (MDA-MB-435) was 11.3 µM and the TGI (MDA-MB-435) was 39.4 µM. The GI50 (A549 NSCLC) was 6.43 µM, the TGI (A549 NSCLC) was 23.9 µM and the GI50 (SW-620 colon) was 10.2 µM. For the same compound, the TGI (SW-620 colon) was 24.7 µM, the GI50 (NCI-H460 lung) was 3.77 µM and the TGI (NCI-H460 lung) was 14.7 µM. For the same compound, the GI50 (K-562 leukemia) was 18.5 µM, the TGI (K-562 leukemia) was > 100 µM and the GI50 (LOX IMVI melanoma) was 10.1 µM. It also gave a TGI (LOX IMVI melanoma) of 23.7 µM, a GI50 (RXF 393 renal) of 14.4 µM and a TGI (RXF 393 renal) of 30.5 µM. It also gave a GI50 (SK-MEL-28 melanoma) of 24 µM, a TGI (SK-MEL-28 melanoma) of 79.1 µM and a GI50 (EKVX NSCLC) of 14.6 µM. It also gave a TGI (EKVX NSCLC) of 36.8 µM, a GI50 (A498 renal) of 18.4 µM and a TGI (A498 renal) of 42.5 µM. The GI50 (NCI-H522 lung) was 5.1 µM, the TGI (NCI-H522 lung) was 23.9 µM and the GI50 (NCI-H226 lung) was 11.6 µM. The TGI (NCI-H226 lung) was 37 µM and the GI50 (CCRF-CEM leukemia) was 16.9 µM.
